Series [1] has as its system Interleukin-6. Kind of series: Interleukin-6 secretion from LPS-stimulated PBMCs. Type of series: cell-based. Particulars: stimulated human PBMCs, result in words. The method, then: (§1) The compounds of Formula (I) may be investigated for inhibition of pro-inflammatory cytokines Interleukin (IL)-[…], 6,8 and 17A, Interferon (IFN)-gamma and Tumour necrosis factor (TNF)-α in peripheral blood mononuclear cells (PBMCs) isolated from fresh human buffy coats by centrifugation on Lymphoprep™ (Stemcell Technologies). All human cells are grown in cell culture medium RPMI-1640 supplemented with 1% penicillin/streptomycin and 5% heat inactivated fetal bovine serum.
(§2) PBMCs stimulated with LPS (Salmonella enterica serotype typhimurium) are incubated for 24 hours containing the compounds under investigation, reconstituted in dimethyl sulfoxide (DMSO). The secreted levels of Interleukin-1β and Interleukin-6 are measured in the cell culture supernatant using a cytometric bead array and the cell viability is quantified using Trypan blue.

For series [2], the system named is Interleukin-8. Kind of series: Interleukin-8 secretion from PBMCs stimulated with TNF-α and IL-17A. The class given is cell-based. The following applies: stimulated human PBMCs, result in words. Here is the method: as §1
PBMCs stimulated with a mixture between TNF-α and IL-17A are incubated for 24 hours whilst containing the compounds under investigation, reconstituted in DMSO. The secreted levels of Interleukin-8 are measured in the cell culture supernatant using a cytometric bead array and the cell viability is quantified using Trypan blue.

The subject of series [3] is Interleukin-1β. Nature of the series: Interleukin-1β secretion from LPS-stimulated PBMCs. Type of series: cell-based. The following applies: stimulated human PBMCs, result in words. Here is the method: as §1, §2
For series [4], the system named is Interleukin-17A. Kind of series: Interleukin-17A secretion from PMA/ionomycin-stimulated PBMCs. Type of series: cell-based, human. The following applies: for inhibition of IL-17 / IL-17A: stimulated human PBMCs, result in words. The method, then: as §1
(§3) PBMCs stimulated with PMA/ionomycin are incubated for 24 hours containing the compounds under investigation, reconstituted in DMSO. The secreted levels of Interleukin-17A are measured in the cell culture supernatant using a cytometric bead array and the cell viability is quantified using Trypan blue.
(§4) 3,5-Diamino-6-(diphenylmethyl)-1,2,4-triazine was also investigated for […] inhibition in a human PBMC model: […]

Series [5] relates to Tumour necrosis factor-α. Nature of the series: Tumour necrosis factor-α secretion from PMA/ionomycin-stimulated PBMCs. Type of series: cell-based. Particulars: stimulated human PBMCs, result in words. The method, then:
as §1
(§5) PBMCs stimulated with PMA/ionomycin are incubated for 24 hours containing the compounds under investigation, reconstituted in DMSO. The secreted levels of Interferon-gamma and Tumour necrosis factor-α are measured in the cell culture supernatant using a Human Quantikine ELISA Kit and the cell viability is quantified using Trypan blue.

Series [6] concerns Interferon-gamma. Kind of series: Interferon-gamma secretion from PMA/ionomycin-stimulated PBMCs. The following applies: stimulated human PBMCs, result in words. Type of series: cell-based. The method, then: as §1, §5
Series [7] can be described thus: PBMC viability in the IL-17A human PBMC model. The class given is cell-based. The following applies: PBMCs stimulated with PMA/ionomycin; human PBMC model, maximum effect; read-out: Inhibition of PMBC viability, Max effect. Here is the method:
as §3, §4

For series [8], the system named is PBMC. Nature of the series: PBMC viability in the IL-17A human PBMC model. The class given is cell-based. The following applies: Homo sapiens, PBMC. The method, then: as §3, §4
The test system of series [9] is IL-4. Kind of series: IL-4 release from stimulated CD4-positive T cells. Type of series: cell-based, human. The method, then:
(§6) The compounds may be investigated for inhibition of pro-inflammatory cytokines Interleukin-2, 4 and 13 in human CD4-positive T cells isolated from fresh isolated PBMCS using a CD4-positive T cell isolation kit.
(§7) CD4-positive T cells stimulated with beads coated with antibodies against CD2, CD3 and CD28 are incubated for 48 hours containing the compounds under investigation, reconstituted in DMSO. The secreted levels of Interleukin-2, 4 and 13 are measured in the cell culture supernatant using a cytometric bead array and the cell viability is measured using an MTT (3-(4,5-dimethylthiazol-2-yl)-2,5-diphenyltetrazolium bromide) assay.
(§8) Secreted IL-4 levels may be measured using electrochemiluminescence (MSD kits, Meso Scale Discovery), while secreted IL-2 levels may be measured using proximity homogenous time-resolved fluorescence (HTRF) and the amount of living cells may be measured by addition of resazurin (PrestoBlue®).

The subject of series [10] is T cell. Nature of the series: T cell proliferation in the IL-2/IL-4 inhibition assays. The class given is cell-based, human. The method, then:
as §6, §7, §8

Series [11] deals with IL-2. Kind of series: IL-2 release from stimulated CD4-positive T cells. The class given is cell-based, human. The method, then:
as §6, §7, §8

The structures appear in SMILES notation. Read-outs that look alike come from different tables or passages of the source.

With `Nc1nnc(-c2sc(Cl)c(Cl)c2Cl)c(N)n1` [Compound 1, 3,5-diamino-6-[2-(3,4,5-trichlorothienyl)]-1,2,4-triazine], in [1], the “inhibition of IL-6” value was “high inhibition”. Also, in [2], the “inhibition of IL-8” value is “high inhibition”. The “inhibition of IL-1β” value in series [3] is reported as “high inhibition”. In addition, the “inhibition of IL-17 / IL-17A” value in series [4] is “moderate inhibition”. In series [5], the “inhibition of TNF-α” value is “high inhibition”. Besides, the “inhibition of IFN-γ” value in series [6] is listed as “high inhibition”.
Regarding `Nc1nnc(C(c2ccccc2)c2ccccc2)c(N)n1` [Compound 2, 3,5-Diamino-6-(diphenylmethyl)-1,2,4-triazine], in [1], the “inhibition of IL-6” value is “moderate inhibition”. The “inhibition of IL-8” value in [2] is given as “high inhibition”. In addition, in [7], the cytotoxicity at 24 h amounted to 38%. In addition, the EC50 in series [8] (read-out: Inhibition of PMBC viability, Abs EC50) is > 10000 nM; in series [8] (read-out: Inhibition of PMBC viability, Rel EC50), 44000 nM; in series [9] (Homo sapiens, CD4 positive, absolute EC50, read-out: Inhibition of IL-4 release, Abs EC50) it was 61.3 nM; in series [9] (Homo sapiens, CD4 positive, relative EC50, read-out: Inhibition of IL-4 release, Rel EC50) it was 50.5 nM; in series [9] (relative EC50, read-out: Inhibition of IL-4 release, Rel EC50) it was 58.4 nM; in series [10] (Homo sapiens, T-cell, absolute EC50, read-out: Inhibition of T cell proliferation, Abs EC50), > 10000 nM. The EC50 was > 10000 nM in series [10] (Homo sapiens, T-cell, relative EC50, read-out: Inhibition of T cell proliferation, Rel EC50); 15 nM in [11] (Homo sapiens, CD4 positive, absolute EC50, read-out: Inhibition of IL-2 release, Abs EC50); 28 nM in [11] (Homo sapiens, CD4 positive, relative EC50, read-out: Inhibition of IL-2 release, Rel EC50); 317 nM in [4] (human PBMC model, absolute EC50, read-out: Inhibition of IL-17A release, Abs EC50); 261 nM in series [4] (human PBMC model, relative EC50, read-out: Inhibition of IL-17A release, Rel EC50). Moreover, the Emax in series [9] (Homo sapiens, CD4 positive, maximum effect, read-out: Inhibition of IL-4 release, Max Effect) amounted to 99%; in [10] (Homo sapiens, T-cell, maximum effect, read-out: Inhibition of T cell proliferation, Max Effect), 28%; in [11] (Homo sapiens, CD4 positive, maximum effect, read-out: Inhibition of IL-2 release, Max Effect), 97%; in [4] (human PBMC model, maximum effect, read-out: Inhibition of IL-17A release, Max effect) it was 86%. Also, the “inhibition of IL-4” value in series [9] (result in words) was “good level of inhibition”. In addition, the “inhibition of T cell proliferation” value in [10] (result in words) was “without significant inhibition”. Moreover, in [3], the “inhibition of IL-1β” value was “moderate inhibition”. Besides, the “inhibition of IL-2” value in series [11] (result in words) is on record as “good level of inhibition”. Further, the “inhibition of IL-17 / IL-17A” value in series [4] is reported as “high inhibition”. The “inhibition of TNF-α” value in series [5] (at the top concentration) is listed as “high inhibition”. Also, in series [6], the “inhibition of IFN-γ” value is on record as “high inhibition”.

These data come from patent US20230165869A1, “DIAZINE AND TRIAZINE COMPOUNDS TO TREAT CYTOKINE STORM SYNDROME” (UNIVERSITY OF GREENWICH, priority 2020, published 2023).
